Legend:
[1] = system: tryptophan-hydroxylase (TPH) and aromatic-amino acid-decarboxylase (AAAD); assay: Intracellular enzymatic metabolisation by TPH and AAAD; assay type: in vitro ADME; conditions: 7-HTP to 5,7-DHT, 6-HTP to 5,6-DHT
Text: The invention is put into practice according to the claims. […] These two enzymes, TPH and AAAD, are expressed extraordinarily strong in serotonin-producing tumor cells. Due to the unequally higher TPH-expression in these tumor cells in comparison with normal serotonin-producing tissues, only marginally toxic effects occur in these tissues.
FIG. 1. Reaction scheme of enzymatic metabolisation of 7-hydroxytryptophan (7-HTP) to 5,7-dihydroxytryptamine (5,7-DHT). The rate-limiting first step is mediated by the enzyme tryptophan-hydroxylase (TPH) and is followed by a rapid decarboxylation by the aromatic-amino acid-decarboxylase (AAAD).

[2] = system: serotonin-producing cells NG108; assay: Toxicity of 7-HTP on serotonin-producing cells NG108 (FIG. 2); assay type: cell-based
Text: (§1) FIG. 2. […] In contrast, the growth of COS7-cells that produce no serotonin is not affected by 7-HTP.

COS7-cells = assay: Growth of COS7-cells that produce no serotonin (FIG. 2); assay type: cell-based
Text: as §1

[3] = system: serotonin-producing mastocytoma cells P815; assay: Toxicity of 7-HTP on mastocytoma cells P815 (FIG. 3); assay type: cell-based
[4] = system: serotonin-producing human carcinoid cells BON; assay: Toxicity of 7-HTP on human carcinoid cells BON (FIG. 4); assay type: cell-based

Row | Compound | intracellular metabolisation to dihydroxytryptamine toxin [1] | protection of 7-HTP-sensitive NG108-cells against 7-HTP toxicity ([2]; NG108 cells treated with 7-HTP plus TPH-inhibitor, no 5,7-DHT synthesised intracellularly) | toxicity on the serotonin-producing cells NG108 ([2]; NG108 cells, FIG. 2) | growth of COS7-cells (COS7-cells) | toxicity on the serotonin-producing mastocytoma cells P815 [3] | toxicity on the serotonin-producing human carcinoid cells BON [4]
1 | N[C@@H](Cc1c[nH]c2cc(O)ccc12)C(=O)O [6-HTP, 6-hydroxytryptophan] | metabolised intracellularly | – | – | – | – | –
2 | N[C@@H](Cc1ccc(Cl)cc1)C(=O)O [PCPA, p-chlorophenylalanin, reference compound] | – | can be protected | – | – | – | –
3 | N[C@@H](Cc1c[nH]c2c(O)cccc12)C(=O)O [7-HTP, 7-hydroxytryptophan] | metabolised intracellularly | – | Specific toxicity | not affected | rapidly and specifically killed | rapidly and specifically killed
